Measured values: patent US20160176867A1, “MODIFIED BET-PROTEIN-INHIBITING DIHYDROQUINOXALINONES AND DIHYDROPYRIDOPYRAZINONES” (BAYER PHARMA AKTIENGESELLSCHAFT, priority 2013, published 2016)

How the values were obtained:
[1] = biological target: T1, BRD4 bromo domain 2 [BRD4(2)] (Homo sapiens, UniProt O60885); assay: BRD4/acetylated peptide H4 binding assay (TR-FRET), BRD4 bromo domain 2; conditions: inhibition of BRD4(2)/Ac-H4 peptide interaction
T1 construct: N-terminally His6-tagged BRD4(2) (amino acids 357-445); made in house; host or cells: E. coli
Procedure, shortened: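 IC50 comes from a 4-parameter fit over 0.1 nM–20 μM in duplicate, normalised to DMSO and no-protein controls. TR-FRET (Eu-streptavidin/anti-His-XL665) tracks His-tagged BRD4(2) 357-445 at 100 nM binding Ac-H4 peptide in HEPES pH 7.5 buffer. Incubation was 1 h at 22 °C, then at 4 °C ≥3 h up to overnight.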

MOLP-8 cells = assay: Cell proliferation assay (alamarBlue), MOLP-8; format: cell-based; conditions: Homo sapiens; MOLP-8 (multiple myeloma), 120 hours
Procedure, shortened: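 MOLP-8 cells plated at 4000 cells/well in RPMI1640 with 20% FCS, read after overnight culture, then treated with dilutions from 1E-5 to 1E-8 M for 120 hours at 37° C. Viability by alamarBlue fluorescence (ex 530/em 590 nm); initial reads subtracted, compared with buffer-treated cells, and IC50 calculated for 50% proliferation inhibition.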

IC50 [1]: 191 nM
Compound: Cc1nnc(-c2cccc(Nc3ccc4c(n3)N(C3CCOCC3)[C@H](C)C(=O)N4C)c2)o1 [Example 134, (3R)-1,3-Dimethyl-6-{[3-(5-methyl-1,3,4-oxadiazol-2-yl)phenyl]amino}-4-(tetrahydro-2H-pyran-4-yl)-3,4-dihydropyrido[2,3-b]pyrazin-2(1H)-one]
IC50 (MOLP-8 cells): 453 nM
